Consider one compound from ChEMBL document CHEMBL1152844, “Synthesis and anti-HIV studies of 2- and 3-adamantyl-substituted thiazolidin-4-ones” (Eur J Med Chem, 2009).

Structures are written as SMILES. Activity calls are given as the source filed them. No cut-off for these calls is given here.

Data set [1] deals with Coxsackievirus B4. Put plainly: Antiviral activity against Coxsackievirus B4 infected in african green monkey Vero cells. The class given is functional, organism-based.
Data set [2] deals with Influenza B virus. The data set can be described thus: Antiviral activity against Influenza virus type B infected in MDCK cells. Format: functional, organism-based.
For data set [3], the system named is Influenza A virus. Put plainly: Antiviral activity against Influenza virus type A H3N2 infected in MDCK cells. The class given is functional, organism-based.
Data set [4] has as its system Mammalian orthoreovirus 1. The data set can be described thus: Antiviral activity against Reovirus 1 infected in african green monkey Vero cells. Format: functional, organism-based.
In data set [5] the test system is Human alphaherpesvirus 2. The data set can be described thus: Antiviral activity against Herpes simplex virus type 2 infected in HEL cells. The class given is functional, organism-based.
Data set [6] relates to Feline coronavirus. The data set can be described thus: Antiviral activity against Feline coronavirus infected in crandel feline kidney cells. The class given is functional, organism-based.
In data set [7] the test system is Human immunodeficiency virus 1. The data set can be described thus: Antiviral activity against HIV1 3B infected in human CEM cells assessed as inhibition of virus-induced cytopathicity after 4 days. Format: functional, organism-based. As to conditions: Human immunodeficiency virus 1, 3B, CCRF-CEM, 96 h.
Data set [8] deals with Coxsackievirus B4. The data set can be described thus: Antiviral activity against Coxsackievirus B4 infected in human HeLa cells. The class given is functional, organism-based.
In data set [9] the test system is Human immunodeficiency virus 2. The data set can be described thus: Antiviral activity against HIV2 ROD infected in human CEM cells assessed as inhibition of virus-induced cytopathicity after 4 days. The class given is functional, organism-based. Particulars: Human immunodeficiency virus 2, ROD, CCRF-CEM, 96 h. In general terms: Cytopathic effects are the visible damage that an infection or toxin causes in cultured cells.

Data set [10] deals with Human alphaherpesvirus 1. Put plainly: Antiviral activity against Herpes simplex virus type 1 infected in HEL cells. The class given is functional, organism-based.
In data set [11] the test system is Punta Toro virus. The data set can be described thus: Antiviral activity against Punta Toro virus infected in african green monkey Vero cells. Format: functional, organism-based.
Data set [12] concerns Respiratory syncytial virus. Put plainly: Antiviral activity against Respiratory syncytial virus infected in human HeLa cells. The class given is functional, organism-based.
In data set [13] the test system is Influenza A virus. The data set can be described thus: Antiviral activity against Influenza virus type A H1N1 infected in MDCK cells. The class given is functional, organism-based.
Data set [14] can be described thus: Cytotoxicity against HIV-infected human CEM cells. Format: cell-based, CCRF-CEM. As to conditions: HIV-infected CEM (CCRF-CEM) cells.
Data set [15] deals with Human respirovirus 3. The data set can be described thus: Antiviral activity against Parainfluenza virus type 3 infected in african green monkey Vero cells. The class given is functional, organism-based.
In data set [16] the test system is Sindbis virus. Put plainly: Antiviral activity against Sindbis virus infected in african green monkey Vero cells. Format: functional, organism-based.
Data set [17] relates to Vesicular stomatitis virus. The data set can be described thus: Antiviral activity against Vesicular stomatitis virus infected in HEL cells. The class given is functional, organism-based.
In data set [18] the test system is Vaccinia virus. The data set can be described thus: Antiviral activity against Vaccinia virus infected in HEL cells. Format: functional, organism-based. As to conditions: Orthopoxvirus vaccinia.
Data set [19] relates to Vesicular stomatitis virus. Put plainly: Antiviral activity against Vesicular stomatitis virus infected in human HeLa cells. Format: functional, organism-based.
Data set [20] can be described thus: Selectivity index, ratio of CC50 for human CEM cells to EC50 for HIV1 3B. As to conditions: read-out: Ratio CC50/EC50. The class given is toxicity, cell-based, CCRF-CEM.

As to `CCN(CC)CCN1C(=O)CSC1CC12CC3CC(CC(C3)C1)C2` (stereo not given), the result in data set [1], in data set [2], in data set [3], in data set [4], in data set [5] and in [6] was inactive. Besides, the result in data set [8], in data set [10], in data set [11], in [12], in data set [13] and in data set [15] was inactive. The result in data set [16], in data set [17], in data set [18] and in data set [19] was inactive. Further, the EC50 (as a rule, the concentration at which the effect is half-maximal) in data set [7] stood at 30.8 µM; in data set [9], 46 µM. Further, it took 43 µM to reach half-maximal cytotoxicity in data set [14] (CC50). Further, the selectivity ratio in data set [20] is < 1.4.
